Several values for one entry are separate records, joined by “and”; a condition that tells them apart may be missing. Identical values can stand only once. Bounds are passed on as bounds.

82 compounds from the Kinase Knowledgebase extract (Sharma et al. 2016) can be followed below.

The target in one assay is MAPK14 (human) (UniProt Q16539). Nature of the assay: Inhibition of LPS Stimulated TNF Production by U937 Cells.
Sequence of MAPK14 (human) (Q16539 whole entry, looked up): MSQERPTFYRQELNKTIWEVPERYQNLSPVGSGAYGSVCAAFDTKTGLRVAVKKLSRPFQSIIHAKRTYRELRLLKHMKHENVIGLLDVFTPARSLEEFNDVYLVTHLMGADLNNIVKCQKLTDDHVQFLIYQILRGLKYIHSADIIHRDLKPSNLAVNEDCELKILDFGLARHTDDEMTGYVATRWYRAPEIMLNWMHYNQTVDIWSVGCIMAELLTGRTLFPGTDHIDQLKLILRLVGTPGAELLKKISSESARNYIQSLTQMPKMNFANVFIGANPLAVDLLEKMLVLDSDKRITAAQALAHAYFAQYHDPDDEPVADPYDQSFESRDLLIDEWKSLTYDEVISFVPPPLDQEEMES
Conditions: not given
In the case of `OCCn1cc(-c2ccnc(NCc3ccc(F)cc3)c2)c(-c2ccc(F)cc2)n1`, the 50% inhibitory concentration (IC50) is 140 nM and 800 nM.
Consider `Fc1ccc(-c2n[nH]cc2-c2ccnc(NC3CCN(Cc4ccccc4)CC3)c2)cc1`, for which the concentration for half-maximal inhibition (IC50) came out at 543 nM.
In the case of `CN(C)CCNc1cc(-c2c[nH]nc2-c2ccc(F)cc2)ccn1`, the 50% inhibitory concentration (IC50) stood at 259 nM. Against the preceding compound, the IC50 is about 2.1-fold lower.
`Cc1n[nH]c(-c2ccc(C(F)(F)F)cc2)c1-c1ccncc1` displayed a half-maximal inhibitory concentration (IC50) of 522 nM.
Take `CC[C@H](C)CNc1cc(-c2c[nH]nc2-c2ccc(Cl)cc2)ccn1`: the IC50 turned out to be 33.7 nM.
In turn, `Cc1n[nH]c(-c2ccccc2)c1-c1ccncc1` yielded an IC50 of 578 nM. This IC50 lies about 17-fold higher than the previous one.
`Fc1ccc(-c2n[nH]cc2-c2ccnc3ccccc23)cc1` had an IC50 of 1130 nM.
`Cn1nc(-c2ccc(F)cc2)c(-c2ccncc2)c1C(O)c1ccccc1` (stereo not drawn) came in with an IC50 of 349 nM.
As to `CC(C)C(=O)N[C@@H](C)c1[nH]nc(-c2ccc(F)cc2)c1-c1ccncc1`, the half-inhibitory concentration (IC50) worked out at 1010 nM.
As for `Cn1cc(-c2ccncc2)c(-c2cccc(C(F)(F)F)c2)n1`, the IC50 was determined as 402 nM.
The compound `C[C@@H](NS(=O)(=O)c1ccc(F)cc1)c1[nH]nc(-c2ccc(F)cc2)c1-c1ccncc1` gave an IC50 of 900 nM. Against the preceding compound, the IC50 is about 2.2-fold higher.
As to `CS(=O)(=O)NCc1[nH]nc(-c2ccc(F)cc2)c1-c1ccncc1`, the half-maximal inhibitory concentration (IC50) was determined as 5000 nM.
Still for that read-out and setting: in the case of `C[C@@H](NS(C)(=O)=O)c1[nH]nc(-c2ccc(F)cc2)c1-c1ccncc1` it was 440 nM.
For `COc1ccc(CC(=O)N[C@H](Cc2ccccc2)c2[nH]nc(-c3ccc(F)cc3)c2-c2ccncc2)cc1OC`, the IC50 is over 1000 nM.
In turn, `O=C(c1cccs1)N1CCC(c2[nH]nc(-c3ccc(F)cc3)c2-c2ccncc2)CC1` gave an IC50 of 370 nM.
`N#Cc1cc(-c2c[nH]nc2-c2ccc(F)cc2)ccn1`: the IC50 turned out to be 298 nM.
With `O=C(NCc1[nH]nc(-c2ccc(F)cc2)c1-c1ccncc1)c1ccccc1I`, the half-maximal inhibitory concentration (IC50) was 2970 nM. This IC50 is about 10-fold higher than that of the compound before.
For `Fc1ccc(-c2[nH]nc(-c3ccccc3)c2-c2ccncc2)cc1`, the half-maximal inhibitory concentration (IC50) stood at 77 nM.
As to `Cn1cc(-c2ccnc(CCc3ccc(F)cc3)c2)c(-c2ccc(F)cc2)n1`, the IC50 is 327 nM.
In the case of `Cc1cnccc1-c1c[nH]nc1-c1ccc(F)cc1`, the IC50 was determined as 1210 nM.
`CCOC(=O)N[C@H](C)c1[nH]nc(-c2ccc(F)cc2)c1-c1ccncc1` gave an IC50 of 740 nM.
`Cc1ccc(-c2[nH]nc(C)c2-c2ccncc2)c(C)c1` yielded an IC50 of 1050 nM. The IC50 values of the last two compounds are within 1.5-fold of each other.
Same read-out and setting: the value for `COc1ccc(S(=O)(=O)N[C@@H](Cc2ccccc2)c2[nH]nc(-c3ccc(F)cc3)c2-c2ccncc2)cc1OC` was under 1000 nM.
`O=C(N[C@H](Cc1ccccc1)c1[nH]nc(-c2ccc(F)cc2)c1-c1ccncc1)c1ccc(F)c(F)c1F`: the IC50 was over 1000 nM.
`CC(C)C(=O)N[C@H](Cc1ccccc1)c1[nH]nc(-c2ccc(F)cc2)c1-c1ccncc1`: the IC50 is over 1000 nM.
The compound `Fc1ccc(-c2n[nH]cc2-c2ccnc(NCCN3CCOCC3)c2)cc1` gave an IC50 of 539 nM.
The compound `CS(=O)(=O)c1ccc(CNC(=O)NCCCc2[nH]nc(-c3ccc(F)cc3)c2-c2ccncc2)cc1` had an IC50 of over 1000 nM.
For `Cc1ccc(S(=O)(=O)NCc2[nH]nc(-c3ccc(F)cc3)c2-c2ccncc2)cc1`, the IC50 came to 1290 nM. In other words, the single-digit micromolar range.
Take `CN(C(=O)N[C@H](Cc1ccccc1)c1[nH]nc(-c2ccc(F)cc2)c1-c1ccncc1)c1ccccc1`: the IC50 is over 1000 nM.
Take `Cc1n[nH]c(-c2ccc(N(C)C)cc2)c1-c1ccncc1`: the IC50 is 99 nM.
`CCS(=O)(=O)NCc1[nH]nc(-c2ccc(F)cc2)c1-c1ccncc1` had an IC50 of 5000 nM.
For the compound `COc1ccc(CC(=O)NCc2[nH]nc(-c3ccc(F)cc3)c2-c2ccncc2)cc1OC`, the IC50 was found to be 10000 nM.

The same assay, now with this note: concentration not given here.
On to `COc1ccc(S(=O)(=O)N[C@H](C)c2[nH]nc(-c3ccc(F)cc3)c2-c2ccncc2)cc1OC`, for which the inhibition turned out to be 25%.
For the compound `C[C@H](NC(=O)c1ccccc1Cl)c1[nH]nc(-c2ccc(F)cc2)c1-c1ccncc1`, the inhibition was found to be 48%.
On the same count and under the same terms, the value for `C[C@H](NS(=O)(=O)c1ccc(F)c(Cl)c1)c1[nH]nc(-c2ccc(F)cc2)c1-c1ccncc1` was 85%; that for `CCCCOc1ccc(S(=O)(=O)N[C@H](C)c2[nH]nc(-c3ccc(F)cc3)c2-c2ccncc2)cc1` was 67%.
Still for that read-out and setting: in the case of `O=C(NCc1[nH]nc(-c2ccc(F)cc2)c1-c1ccncc1)C(c1ccccc1)c1ccccc1` it was 78%; in that of `C=CCNC(=O)N[C@H](C)c1[nH]nc(-c2ccc(F)cc2)c1-c1ccncc1`, 48%.
Regarding `C[C@@H](NC(=O)c1cccc(Br)c1)c1[nH]nc(-c2ccc(F)cc2)c1-c1ccncc1`, the inhibition came out at 27%.
In turn, `C[C@@H](NC(=O)c1ccccc1Br)c1[nH]nc(-c2ccc(F)cc2)c1-c1ccncc1` showed an inhibition of 87%.
In turn, `C[C@@H](NC(=O)N[C@H](C)c1[nH]nc(-c2ccc(F)cc2)c1-c1ccncc1)c1ccccc1` displayed an inhibition of 28%.
Regarding `C[C@@H](NC(=O)c1c(F)cc(F)cc1F)c1[nH]nc(-c2ccc(F)cc2)c1-c1ccncc1`, the inhibition worked out at 75%.
Take `COCC(=O)N[C@H](C)c1[nH]nc(-c2ccc(F)cc2)c1-c1ccncc1`: the inhibition was 46%.
As to `O=C(NCc1[nH]nc(-c2ccc(F)cc2)c1-c1ccncc1)c1cccc(OC(F)(F)F)c1`, the inhibition came out at 22%.
Same read-out and setting: the value for `CC(=O)NCCNC(=O)NCCCc1[nH]nc(-c2ccc(F)cc2)c1-c1ccncc1` was 9%; that for `Cc1ccccc1S(=O)(=O)NCc1[nH]nc(-c2ccc(F)cc2)c1-c1ccncc1` was 24%; that for `O=S(=O)(NCc1[nH]nc(-c2ccc(F)cc2)c1-c1ccncc1)c1cc(Cl)cc(Cl)c1` was 45%.
Regarding `Cc1c(C)c(S(=O)(=O)NCc2[nH]nc(-c3ccc(F)cc3)c2-c2ccncc2)c(C)c2c1OC(C)(C)CC2`, the inhibition stood at 11%.
Consider `C[C@@H](NS(=O)(=O)c1cccc2nonc12)c1[nH]nc(-c2ccc(F)cc2)c1-c1ccncc1`, for which the inhibition is 96%.
`CNC(=O)CC[C@H](NC(=O)C(C)C)c1[nH]nc(-c2ccc(F)cc2)c1-c1ccncc1` showed an inhibition of 25%.
As to `CNC(=O)CC[C@H](NC(=O)Cc1cccc(OC)c1)c1[nH]nc(-c2ccc(F)cc2)c1-c1ccncc1`, the inhibition came to 3%.
`C[C@@H](NS(=O)(=O)c1cccc(Cl)c1)c1[nH]nc(-c2ccc(F)cc2)c1-c1ccncc1` came in with an inhibition of 97%.
`O=C(NCc1[nH]nc(-c2ccc(F)cc2)c1-c1ccncc1)[C@@H]1CCCN1C(=O)OCC1c2ccccc2-c2ccccc21` displayed an inhibition of 55%.
For `C[C@H](NC(=O)Cc1cccs1)c1[nH]nc(-c2ccc(F)cc2)c1-c1ccncc1`, the inhibition turned out to be 28%.
On to `O=C(NCc1[nH]nc(-c2ccc(F)cc2)c1-c1ccncc1)c1cccc(Cl)c1`, for which the inhibition is 32%.
With `O=C(NCCc1[nH]nc(-c2ccc(F)cc2)c1-c1ccncc1)c1cnc2ccccc2n1`, the inhibition is 20%.
For `O=S(=O)(NCc1[nH]nc(-c2ccc(F)cc2)c1-c1ccncc1)c1ccc(-c2ccccn2)s1`, the inhibition worked out at 63%.
`NC(=O)N[C@@H](Cc1ccccc1)c1[nH]nc(-c2ccc(F)cc2)c1-c1ccncc1`: the inhibition came out at 17%.
In the case of `C[C@H](NS(=O)(=O)c1ccc(Cl)cc1)c1[nH]nc(-c2ccc(F)cc2)c1-c1ccncc1`, the inhibition came to 88%.
`COc1ccc(CC(=O)N[C@H](Cc2ccccc2)c2[nH]nc(-c3ccc(F)cc3)c2-c2ccncc2)cc1OC` yielded an inhibition of 21%.
On the same count and under the same terms, the value for `Cc1ccc(S(=O)(=O)N[C@@H](Cc2ccccc2)C(=O)NCCCc2[nH]nc(-c3ccc(F)cc3)c2-c2ccncc2)cc1` was 36%; that for `CSCCC(=O)NCc1[nH]nc(-c2ccc(F)cc2)c1-c1ccncc1` was 13%.
As to `Cc1c(C)c(S(=O)(=O)N[C@H](C)c2[nH]nc(-c3ccc(F)cc3)c2-c2ccncc2)c(C)c2c1OC(C)(C)CC2`, the inhibition was determined as 68%.
The compound `C[C@@H](NC(=O)c1ccno1)c1[nH]nc(-c2ccc(F)cc2)c1-c1ccncc1` gave an inhibition of 27%.
`CC(C)NC(=O)NCCc1[nH]nc(-c2ccc(F)cc2)c1-c1ccncc1`: the inhibition came out at 54%.
Same read-out and setting: in the case of `C[C@H](NC(=O)c1cc2ccccc2s1)c1[nH]nc(-c2ccc(F)cc2)c1-c1ccncc1` it was 48%.
The same measure, in the same setting: the value for `C[C@@H](NS(=O)(=O)c1ccc(F)c(Cl)c1)c1[nH]nc(-c2ccc(F)cc2)c1-c1ccncc1` was 98%; that for `CCCC(CCC)C(=O)NCc1[nH]nc(-c2ccc(F)cc2)c1-c1ccncc1` was 29%.
Take `Cc1c(Cl)cccc1S(=O)(=O)N[C@H](C)c1[nH]nc(-c2ccc(F)cc2)c1-c1ccncc1`: the inhibition was determined as 71%.
Compound `CCCCS(=O)(=O)N[C@H](C)c1[nH]nc(-c2ccc(F)cc2)c1-c1ccncc1` came in with an inhibition of 45%.
In the case of `C[C@@H](NS(=O)(=O)c1cccc2cnccc12)c1[nH]nc(-c2ccc(F)cc2)c1-c1ccncc1`, the inhibition is 74%.
Same read-out and setting: the value for `C[C@@H](NC(=O)c1ccccc1Cl)c1[nH]nc(-c2ccc(F)cc2)c1-c1ccncc1` was 87%.
Consider `O=C(NCc1[nH]nc(-c2ccc(F)cc2)c1-c1ccncc1)C1CCC1`, for which the inhibition is 28%.
Compound `COC(=O)CCCC(=O)NCc1[nH]nc(-c2ccc(F)cc2)c1-c1ccncc1` gave an inhibition of 20%.
On the same count and under the same terms, the value for `C[C@H](NS(=O)(=O)Cc1ccccc1[N+](=O)[O-])c1[nH]nc(-c2ccc(F)cc2)c1-c1ccncc1` was 88%; that for `Cc1c(Cl)cccc1S(=O)(=O)NCc1[nH]nc(-c2ccc(F)cc2)c1-c1ccncc1` was 15%; that for `O=C(NCc1[nH]nc(-c2ccc(F)cc2)c1-c1ccncc1)c1ccc(F)cc1F` was 54%.
On the same count and under the same terms, the value for `O=C(NCc1[nH]nc(-c2ccc(F)cc2)c1-c1ccncc1)Nc1ccccc1OC(F)(F)F` was 25%.
In turn, `CCCNC(=O)N[C@H](C)c1[nH]nc(-c2ccc(F)cc2)c1-c1ccncc1` gave an inhibition of 55%.
Consider `Cc1ccc(S(C)(=O)=O)cc1S(=O)(=O)N[C@@H](C)c1[nH]nc(-c2ccc(F)cc2)c1-c1ccncc1`, for which the inhibition amounted to 78%.
On the same count and under the same terms, the value for `C[C@@H](NC(=O)c1ccccc1F)c1[nH]nc(-c2ccc(F)cc2)c1-c1ccncc1` was 75%; that for `CC(=O)Nc1ccc(S(=O)(=O)N[C@H](C)c2[nH]nc(-c3ccc(F)cc3)c2-c2ccncc2)cc1` was 64%.
`O=S(=O)(c1cccc(C(F)(F)F)c1)N1CCC(c2[nH]nc(-c3ccc(F)cc3)c2-c2ccncc2)CC1` gave an inhibition of 10%.

In general, IC50 refers to the concentration needed to halve the response being measured. A high value points to a need for much substance. As a reminder, the inhibition is the change of the read-out against control, counted positive when it falls. Lower therefore signals a response near the control.
